Reference: US20060106038A1, “Methods for treating and/or preventing aberrant proliferation of hematopoietic cells” (ICOS CORPORATION, priority 2004, published 2006)
Where two headings read alike, the source gives them in different places.

Experiments:
AML cells = test: Cell proliferation assay, [3H]-Thymidine incorporation, AML cells; type: cell-based; conditions: Homo sapiens, 48 h, PI3Kδ selective inhibitor 10 μM, rapamycin 50 ng/ml
Procedure: Cell proliferation assays were conducted to determine whether PI3K inhibition contributes to AML cell viability. In most PI3K-positive samples tested, the mTOR pathway was activated as assessed by phosphorylation of P70S6K protein on Threonine 389. Thus, proliferation assays were also conducted to determine whether mTOR contributes to AML cell viability. Accordingly, proliferation assays were performed on AML cells with or without the following inhibitor compounds: LY294002, a PI3Kδ selective inhibitor, rapamycin, or a combination of the PI3Kδ selective inhibitor and rapamycin. Cell proliferation was determined by measuring DNA synthesis by [3H]-Thymidine incorporation. Comparative experiments were performed on CD34+ cord blood cells.
For AML cells (obtained as previously described in Example 1), BMMCs were cultured at 3×10^5/ml in alpha medium containing 5% fetal calf serum (FCS) without cytokines for 48 hours, with or without the following inhibitors: LY294002 at 25 μM, PI3Kδ selective inhibitor at 10 μM, rapamycin at 50 ng/ml, or an association of a PI3Kδ selective inhibitor and rapamycin, and incubated in 96-well plates in triplicate. [^3H]-Thymidine was added for a final 6 hour pulse, and the amount of radioactivity incorporated in cells was determined by trichloracetic acid (TCA) precipitation. […] DNA synthesis was measured by [^3H]-Thymidine incorporation after […].

[1] = tested on: myeloid and erythroid colony formation; test: Methylcellulose clonogenic assay; type: cell-based; conditions: PI3Kδ selective inhibitor at 10 μM

SMILES | inhibition at 10 µM (AML cells; PI3K-positive AML samples, read-out: inhibition of proliferation of leukemic cells) [%] | inhibition at 10 µM (AML cells; representative PI3K-negative AML cell sample, read-out: inhibition of proliferation of leukemic cells (mean values)) [%] | inhibition at 10 µM [1] [%]
CO[C@H]1C[C@@H]2CC[C@@H](C)[C@@](O)(O2)C(=O)C(=O)N2CCCC[C@H]2C(=O)O[C@H]([C@H](C)C[C@@H]2CC[C@@H](O)[C@H](OC)C2)CC(=O)[C@H](C)/C=C(\C)[C@@H](O)[C@@H](OC)C(=O)[C@H](C)C[C@H](C)/C=C/C=C/C=C/1C [rapamycin] | 64 | 29 | –
O=c1cc(N2CCOCC2)oc2c(-c3ccccc3)cccc12 [LY294002] | – | – | 95
